Results reported in patent US20240237661A1, “ANTIMICROBIAL SOLUTIONS AND USES THEREOF” (EcoPlanet Environmental LLC, priority 2023, published 2024).
Several values for one entry are separate records, joined by “and”; a condition that tells them apart may be missing. Equal entries are not always repeated.

Columns and labels:
[1] = system: nalidixic acid-resistant Salmonella Enterica serovar Typhimurium; experiment: Wing wash model: Salmonella counts in rinsate of experimentally contaminated broiler wings; format: cell-based
Experimental: As a non-limiting example, the efficacy of Sx on the reduction of nalidixic acid-resistant Salmonella spp. on experimentally contaminated broiler carcasses (using a wing wash model) was tested. Sx was tested at 100 ppm and 200 ppm, with or without lecithin and was compared with an untreated negative control group and peracetic Acid (PAA) at 200 ppm as a commercial comparator. […] Almost 0.6 to 3.0 log reduction has been observed in previous iterations. During those studies, the effectiveness of Sx was studied at different time intervals and fixed time interval. […] Whereas, based on literature and food safety inspection services (USDA) directive 7120.1, PAA has been recommended with the dose range of 50 ppm to 2000 ppm. Under field conditions, most of the establishments use 200 ppm as a whole carcass rinse. Therefore, in this iteration, Sx was compared with PAA at 200 ppm level. In this study, Sx was tested at 1.25% and 2.5% level which are equivalent to 100 ppm and 200 ppm of propionic acid concentration. Lecithin was added to the Sx solution at the rate of 0.02%. Lecithin is believed to enhance the cell wall penetration of propionic acid and isoamyl hexanoate leading to better antimicrobial activity.
For this study, a WHIRL-PAK® bag containing one pair of chicken wings was the experimental unit. On approximately day 47 of the broilers age, approximately 54 broilers were euthanized by severing the jugular vein after euthanization. The carcass was thoroughly washed using hot water. The feathers were removed using a mechanical plucker. The wings were separated from the whole carcass and preserved in a cooler containing ice. Each treatment group was represented by nine sample bags (replicates) containing one pair of wings. Three sample bags from each treatment group were pooled together and identified as first, second and third set as shown in Table 3.
To start with, eighteen pairs of wings were brought to the hood and sprayed with Salmonella typhimurium (Nalidixic Acid Resistant [NAR]) inoculum at the rate of 10 mL per pair. The carcasses were allowed to dry for 15 minutes. Following drying, eighteen pairs of wings were inserted into WHIRL-PAK bags at the rate of one pair per WHIRL-PAK bag. T1 bags were added with non-medicated, sterilized reverse osmosis (SRO) water at the rate of one liter per bag. T2-T6 bags were added with respective medicated, SRO water at the rate of one liter per bag. All the bags were incubated for 15 mins in a cooler containing ice cubes. After 15 minutes, the carcass in each bag was removed from the SRO water bag and inserted into a fresh WHIRL-PAK bag.
Approximately 100 mL of buffered peptone water was added into each bag and agitated for one minute. […]

[2] = system: range of target microorganisms; settings: both in gas and MIC assays; cited from earlier work

CC(=O)OO [PAA 200 ppm, peracetic Acid]
Salmonella count (MPN) ([1]; Salmonella count per mL of wing wash rinsate after 15 mins incubation in medicated SRO water, mean of 9 replicates, concentration in label): 6.51E+05±5.68E+05 cfu/mL and 6.51E+05 cfu/mL | MPN (Actual numbers) ([1]; Salmonella count per mL of wing wash rinsate after 15 mins incubation, concentration in label): 650,694 | % Reduction ([1]; decrease of Salmonella count compared to untreated control, 15 mins incubation, P<0.05): 84% and 84.55% | Log Reduction ([1]; overall reduction of salmonella count compared to untreated control, 15 mins incubation): 0.77 Log

CC(C)C(=O)O [isobutyric acid]
Bioactivity by itself [2]: some limited bioactivity
